Test system: Corynebacterium xerosis
Assay: action against Corynebacterium xerosis
Details: qualitative statement, no method or data given

Question: How did the “action against Corynebacterium xerosis” value turn out when `CCCCCCCCOC1O[C@H](CO)[C@@H](O)[C@H](O)[C@H]1O` (stereo partly drawn) [octylglucopyranoside] was run?
Answer: very good action

Question: How did the “action against Corynebacterium xerosis” value turn out when `CCCCCCCCCO[C@@H]1O[C@H](CO)[C@@H](O)[C@H](O)[C@H]1O` [β-D-nonylglucopyranoside] was run?
Answer: very good action

Question: For `CCCCCCCCCCCCO[C@@H]1O[C@H](CO)[C@@H](O)[C@H](O)[C@H]1O` [β-D-dodecylglucopyranoside], which “action against Corynebacterium xerosis” value is on record?
Answer: very good action
